Data reported in article PMC9118996, “Directed evolution of Zymomonas mobilis sugar facilitator Glf to overcome glucose inhibition” (Journal of Industrial Microbiology & Biotechnology, 2021).

Molecular target: T1, Glf (Zymomonas mobilis sugar / glucose facilitator) (Zymomonas mobilis, UniProt P21906)
T1 construct: full-length glf coding region with 20 bp native flanks in pTrc99A (pGlfwt), no tag told; expressed in E. coli W derivatives EG29 and EG51A lacking glucose and xylose uptake
T1 sequence (P21906 1-473): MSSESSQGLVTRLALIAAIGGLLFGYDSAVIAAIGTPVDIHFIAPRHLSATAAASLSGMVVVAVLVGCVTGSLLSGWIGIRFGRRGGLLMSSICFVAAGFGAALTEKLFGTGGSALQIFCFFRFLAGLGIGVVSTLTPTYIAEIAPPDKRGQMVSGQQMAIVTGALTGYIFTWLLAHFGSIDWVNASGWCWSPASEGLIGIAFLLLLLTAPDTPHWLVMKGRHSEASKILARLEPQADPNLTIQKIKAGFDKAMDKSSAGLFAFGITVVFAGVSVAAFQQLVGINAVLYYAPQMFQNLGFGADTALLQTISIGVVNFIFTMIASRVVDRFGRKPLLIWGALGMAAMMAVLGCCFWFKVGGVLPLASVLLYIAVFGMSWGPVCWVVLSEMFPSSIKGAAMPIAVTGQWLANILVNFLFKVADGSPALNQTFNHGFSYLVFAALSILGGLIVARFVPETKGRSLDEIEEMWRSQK
Experiment: xylose utilization in fermentation of transport-deficient E. coli with Glf vs empty vector (HPLC)
Type: cell-based, Escherichia coli
Settings: E. coli EG51A (EG29 glk-), 34 g/l xylose alone, pH 7.0, 37 °C, 10 µM IPTG; facilitated uptake; whole-cell read-out

Compound: OC1OC[C@@H](O)[C@H](O)[C@H]1O (stereo partly drawn) [D-xylose]
- xylose utilization in fermentation of transport-deficient E. coli with Glf vs em: EG51A transformed with pGlfwt showed much improved xylose utilization compared to EG51A with empty vector
